Experimental data: ChEMBL document CHEMBL1152013, “()-Phenylahistin: A new mammalian cell cycle inhibitor produced by aspergillus ustus” (Bioorg Med Chem Lett, 1997)

Test system: P388
Assay: Inhibitory concentration required for cytotoxic effect against P388 murine leukemia cells
Type: functional, cell-based
Settings: Mus musculus

Structure (SMILES): C=CC(C)(C)c1[nH]cnc1/C=C1\NC(=O)[C@H](Cc2ccccc2)NC1=O
- IC50: 0.35 µM

Structure (SMILES): C=CC(C)(C)c1[nH]cnc1/C=C1\NC(=O)[C@@H](Cc2ccccc2)NC1=O
- IC50: 38 µM
